# Target: T1, MAP2K6 (MKK6) S207E T211E (Homo sapiens, UniProt P52564, S207E/T211E)
# T1 construct: purchased Thermo Fisher Scientific (Life Technologies) SelectScreen
# Test: SelectScreen LanthaScreen
# Type: binding
# Conditions: read-out: % displacement
# Procedure, shortened: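 Percent values come from Thermo SelectScreen profiling of NU5455, combining activity and binding assays. CSF1R was run in Z'LYTE format at Km app ATP, and CAMK1 in Adapta format with ATP listed at 10.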
# T1 sequence (P52564 whole entry S207E/T211E): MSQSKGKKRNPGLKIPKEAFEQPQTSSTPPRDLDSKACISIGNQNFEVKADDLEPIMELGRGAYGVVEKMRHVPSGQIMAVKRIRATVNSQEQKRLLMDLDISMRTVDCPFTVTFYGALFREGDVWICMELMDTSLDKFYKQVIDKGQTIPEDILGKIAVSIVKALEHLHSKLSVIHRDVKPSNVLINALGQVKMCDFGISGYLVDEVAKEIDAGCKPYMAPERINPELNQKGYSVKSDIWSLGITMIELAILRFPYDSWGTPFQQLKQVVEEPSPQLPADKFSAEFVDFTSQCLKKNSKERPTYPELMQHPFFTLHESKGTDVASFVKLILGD
compound,measurement,value
CN(C(=O)CN1CCOCC1)c1ccc2sc3c(-c4cccc5c(=O)cc(N6CC7CCC(C6)O7)oc45)cccc3c2c1 [NU5455],inhibition at 1 µM,-4.9%
